Among the data in patent publication US7582649B2, “Hydroxy alkyl substituted 1,3,8-triazaspiro[4.5]decan-4-one derivatives useful for the treatment of ORL-1 receptor mediated disorders” (Janssen Pharmaceutica, NV, priority 2002, dated 2009) are IC50 and Ki values, retold here.

For orientation: IC50 means the concentration that inhibits the measured activity by half. Read a low IC50 as greater potency. Broadly, the Ki is the dissociation constant of the complex between target and ligand, obtained from inhibition or displacement. Higher therefore signals a looser hold on the target.

One test concerns the target kappa opioid receptor (Homo sapiens, UniProt P41145). Briefly: Filtration binding assay: kappa opioid receptor.
In a further test the target is delta opioid receptor (Homo sapiens, UniProt P41143). Briefly: Filtration binding assay: delta opioid receptor.
Chain of delta opioid receptor (P41143 whole entry): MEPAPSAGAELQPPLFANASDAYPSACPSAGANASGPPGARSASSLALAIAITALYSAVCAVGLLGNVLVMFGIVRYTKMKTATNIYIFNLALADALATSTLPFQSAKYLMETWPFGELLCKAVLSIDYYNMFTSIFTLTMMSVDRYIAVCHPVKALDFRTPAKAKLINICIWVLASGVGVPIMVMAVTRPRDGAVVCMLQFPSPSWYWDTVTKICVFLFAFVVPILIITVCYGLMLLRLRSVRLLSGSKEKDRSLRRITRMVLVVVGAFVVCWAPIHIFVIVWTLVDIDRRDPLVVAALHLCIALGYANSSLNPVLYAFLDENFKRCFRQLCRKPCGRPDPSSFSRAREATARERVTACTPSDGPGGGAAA
The target of a further test is mu opioid receptor (Homo sapiens, UniProt P35372). The test is described as follows: Filtration binding assay: mu opioid receptor.
Chain of mu opioid receptor (P35372 whole entry): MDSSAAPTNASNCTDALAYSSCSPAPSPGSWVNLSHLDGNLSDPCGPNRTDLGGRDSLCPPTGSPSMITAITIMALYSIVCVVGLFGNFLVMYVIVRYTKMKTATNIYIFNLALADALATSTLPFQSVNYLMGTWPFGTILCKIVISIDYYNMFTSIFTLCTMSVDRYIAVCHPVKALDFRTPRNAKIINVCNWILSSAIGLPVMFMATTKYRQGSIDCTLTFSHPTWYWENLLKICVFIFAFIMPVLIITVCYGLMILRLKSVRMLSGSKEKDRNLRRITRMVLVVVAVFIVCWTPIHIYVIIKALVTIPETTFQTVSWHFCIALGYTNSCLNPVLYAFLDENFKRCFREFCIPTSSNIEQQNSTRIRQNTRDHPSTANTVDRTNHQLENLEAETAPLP

Chain of kappa opioid receptor (P41145 whole entry): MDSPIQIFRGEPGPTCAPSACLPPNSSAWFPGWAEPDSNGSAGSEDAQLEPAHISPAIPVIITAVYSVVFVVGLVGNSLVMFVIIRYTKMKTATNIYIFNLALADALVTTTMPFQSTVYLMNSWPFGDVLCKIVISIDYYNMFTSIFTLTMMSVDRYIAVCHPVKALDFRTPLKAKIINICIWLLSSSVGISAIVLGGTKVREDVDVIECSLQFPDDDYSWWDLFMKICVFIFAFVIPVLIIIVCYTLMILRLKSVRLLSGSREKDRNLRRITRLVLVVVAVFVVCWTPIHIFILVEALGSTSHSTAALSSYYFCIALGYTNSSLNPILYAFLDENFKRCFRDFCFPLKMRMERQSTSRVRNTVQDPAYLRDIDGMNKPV

For `COc1ccc(CCNC[C@H](O)CN2CN(c3ccc(F)cc3)C3(CCN(C4Cc5cccc6cccc4c56)CC3)C2=O)cc1OC` (mixture of isomers) [compound 48], the results for the IC50 on kappa opioid receptor, on delta opioid receptor and on mu opioid receptor were 170 nM, greater than 10000 nM and 540 nM, respectively.

Turning to `COc1ccc(CCNC[C@@H](O)CN2CN(c3ccc(F)cc3)C3(CCN(C4Cc5cccc6cccc4c56)CC3)C2=O)cc1OC` (mixture of isomers) [compound 300], the IC50 at kappa opioid receptor was 130 nM; on delta opioid receptor it was 4840 nM; at mu opioid receptor, 510 nM.

Turning to `COC(=O)c1ccc(CNC[C@H](O)CN2CN(c3ccc(F)cc3)C3(CCN(C4Cc5cccc6cccc4c56)CC3)C2=O)cc1` (mixture of isomers) [compound 348], the figures for the IC50 at kappa opioid receptor, on delta opioid receptor and at mu opioid receptor were 930 nM, greater than 10000 nM and 5420 nM, respectively.

Consider `CNCCCNCC(O)CN1CN(c2ccc(F)cc2)C2(CCN(CC3CCC4CC3C4(C)C)CC2)C1=O` (mixture of isomers) [compound 664], for which the Ki at kappa opioid receptor was 720 nM; at delta opioid receptor it was greater than 5000 nM; at mu opioid receptor, 260 nM.

With `CC(=O)NC(CSC[C@H](O)CN1CN(c2ccc(F)cc2)C2(CCN(CC3CCCCCCC3)CC2)C1=O)C(=O)O` (single isomer, unassigned) [compound 447], the IC50 at delta opioid receptor and on mu opioid receptor was 480 nM in each case.

Regarding `O=C1N(C[C@@H](O)CNCCN2CCOCC2)CN(c2ccc(F)cc2)C12CCN(CC1CCCCCCC1)CC2` [Compound #1], the figures for the half-maximal inhibitory concentration (IC50) on kappa opioid receptor, on delta opioid receptor and on mu opioid receptor were 130 nM, greater than 10000 nM and 620 nM, respectively.

As to `COc1ccc(CNC[C@@H](O)CN2CN(c3ccc(F)cc3)C3(CCN(CC4CCCCCCC4)CC3)C2=O)cc1OC` [Compound #2], the 50% inhibitory concentration (IC50) on kappa opioid receptor is 190 nM; at delta opioid receptor, greater than 10000 nM; on mu opioid receptor, 1200 nM.

In the case of `O=C1N(C[C@H](O)CNCc2cc(C(F)(F)F)cc(C(F)(F)F)c2)CN(c2ccc(F)cc2)C12CCN(CC1CCCCCCC1)CC2` [Compound #3], the 50% inhibitory concentration (IC50) came out at 440 nM on kappa opioid receptor, 9160 nM at delta opioid receptor and 4050 nM at mu opioid receptor.

Take `O=C1N(C[C@H](O)CNCCc2c[nH]cn2)CN(c2ccc(F)cc2)C12CCN(CC1CCCCCCC1)CC2` [Compound #4]: the results for the half-inhibitory concentration (IC50) on kappa opioid receptor, on delta opioid receptor and at mu opioid receptor were 110 nM, greater than 10000 nM and 160 nM, respectively.

Turning to `O=C1N(C[C@@H](O)CNCc2ccc(F)cc2F)CN(c2ccc(F)cc2)C12CCN(CC1CCCCCCC1)CC2` [Compound #7], the half-inhibitory concentration (IC50) at kappa opioid receptor was 130 nM; on delta opioid receptor, 7110 nM; at mu opioid receptor, 1380 nM.

Regarding `O=C1N(C[C@@H](O)CNCCc2c[nH]cn2)CN(c2ccc(F)cc2)C12CCN(CC1CCCCCCC1)CC2` [Compound #28], the IC50 on kappa opioid receptor is 180 nM; on delta opioid receptor, greater than 10000 nM; on mu opioid receptor, 410 nM.

On to `O=C1N(C[C@@H](O)CNc2ccncc2)CN(c2ccc(F)cc2)C12CCN(CC1CCCCCCC1)CC2` [Compound #36, 8-Cyclooctylmethyl-1-(4-fluoro-phenyl)-3-[2-(S)-hydroxy-3-(pyridin-4-ylamino)-propyl]-1,3,8-triaza-spiro[4.5]decan-4-one], for which the IC50 on kappa opioid receptor came to 230 nM; on delta opioid receptor it was 1760 nM; on mu opioid receptor, 1760 nM.

For the compound `O=C1N(C[C@@H](O)CN2CCN(c3cccc(C(F)(F)F)c3)CC2)CN(c2ccc(F)cc2)C12CCN(CC1CCCCCCC1)CC2` [Compound #66], the concentration for half-maximal inhibition (IC50) on kappa opioid receptor stood at 130 nM; on delta opioid receptor, 5930 nM; at mu opioid receptor, 550 nM.

As to `CC(C)(C)OC(=O)N1CCN(C[C@H](O)CN2CN(c3ccc(F)cc3)C3(CCN(CC4CCCCCCC4)CC3)C2=O)CC1` [Compound #73], the results for the IC50 at kappa opioid receptor, on delta opioid receptor and at mu opioid receptor were 250 nM, greater than 10000 nM and 680 nM, respectively.

On to `O=C1N(C[C@@H](O)CN(Cc2ccccc2)C[C@@H]2CCC[C@@H]2O)CN(c2ccc(F)cc2)C12CCN(CC1CCCCCCC1)CC2` [compound 289], for which the 50% inhibitory concentration (IC50) at kappa opioid receptor was determined as 190 nM; at mu opioid receptor, 1390 nM.

Turning to `O=C1N(C[C@@H](O)CN(Cc2ccccc2)C[C@@H]2CCCCC[C@@H]2O)CN(c2ccc(F)cc2)C12CCN(CC1CCCCCCC1)CC2` [compound 291], the values for the half-maximal inhibitory concentration (IC50) at kappa opioid receptor and at mu opioid receptor were 570 nM and 4560 nM, respectively.

For `COc1ccc(CCNC[C@H](O)CN2CN(c3ccc(F)cc3)C3(CCN(Cc4cccc5cccc(C)c45)CC3)C2=O)cc1OC` [compound 386], the IC50 is 3690 nM at kappa opioid receptor and greater than 10000 nM at mu opioid receptor.

Consider `Cc1cccc2cccc(CN3CCC4(CC3)C(=O)N(C[C@H](O)CN(Cc3ccccc3)C(C)(C)C)CN4c3ccc(F)cc3)c12` [compound 389], for which the IC50 on kappa opioid receptor was 9840 nM; on mu opioid receptor, 7060 nM.

On to `COc1ccc(CCN(C)C[C@@H](O)CN2CN(c3ccc(F)cc3)C3(CCN(Cc4cccc5cccc(C)c45)CC3)C2=O)cc1OC` [compound 391], for which the concentration for half-maximal inhibition (IC50) at kappa opioid receptor is 2180 nM; at mu opioid receptor, greater than 10000 nM.

For `COc1ccc(CNC[C@@H](O)CN2CN(c3ccc(F)cc3)C3(CCN(Cc4cccc5cccc(C)c45)CC3)C2=O)cc1` [compound 392], the IC50 was 1390 nM on kappa opioid receptor and greater than 10000 nM on mu opioid receptor.

For the compound `Cc1cccc2cccc(CN3CCC4(CC3)C(=O)N(C[C@H](O)CNc3ccncc3)CN4c3ccc(F)cc3)c12` [compound 393], the IC50 is 1040 nM on kappa opioid receptor and greater than 10000 nM at mu opioid receptor.

On to `Cc1cccc2cccc(CN3CCC4(CC3)C(=O)N(C[C@@H](O)CN(Cc3ccccc3)C(C)(C)C)CN4c3ccc(F)cc3)c12` [compound 395], for which the IC50 at kappa opioid receptor is greater than 10000 nM; on mu opioid receptor, 1100 nM.

For `Cc1cccc2cccc(CN3CCC4(CC3)C(=O)N(C[C@@H](O)CNCCN3CCOCC3)CN4c3ccc(F)cc3)c12` [compound 396], the figures for the IC50 at kappa opioid receptor and at mu opioid receptor were 810 nM and greater than 10000 nM, respectively.

In the case of `COc1ccc(CCN(C)C[C@H](O)CN2CN(c3ccc(F)cc3)C3(CCN(Cc4cccc5cccc(C)c45)CC3)C2=O)cc1OC` [compound 399], the figures for the IC50 at kappa opioid receptor and at mu opioid receptor were 750 nM and greater than 10000 nM, respectively.

As for `O=C(O)c1ccc(CNC[C@H](O)CN2CN(c3ccc(F)cc3)C3(CCN(CC4CCCCCCC4)CC3)C2=O)cc1` [compound 452], the values for the IC50 at kappa opioid receptor and on mu opioid receptor were 1520 nM and 570 nM, respectively.

Consider `CCCCNC[C@H](O)CN1CN(c2ccc(F)cc2)C2(CCN(CC3CCCCCCC3)CC2)C1=O` [compound 454], for which the results for the 50% inhibitory concentration (IC50) at kappa opioid receptor and on mu opioid receptor were 120 nM and 510 nM, respectively.

In the case of `CSc1cccc(C(=O)N(Cc2ccc(C)cc2)C[C@H](O)CN2CN(c3ccc(F)cc3)C3(CCN(CC4CCCCCCC4)CC3)C2=O)n1` [compound 455], the values for the IC50 at kappa opioid receptor and at mu opioid receptor were 380 nM and 5160 nM, respectively.

On to `COc1ccc(CCN(C)C[C@H](O)CN2CN(c3ccc(F)cc3)C3(CCN(Cc4c(Cl)cccc4C(F)(F)F)CC3)C2=O)cc1OC` [compound 457], for which the concentration for half-maximal inhibition (IC50) at kappa opioid receptor is 9430 nM; at mu opioid receptor, greater than 10000 nM.

As to `O=C1N(C[C@@H](O)CNc2ccccc2)CN(c2ccc(F)cc2)C12CCN(Cc1c(Cl)cccc1C(F)(F)F)CC2` [compound 458], the IC50 at kappa opioid receptor was 1450 nM; on mu opioid receptor, greater than 10000 nM.

Regarding `CN(C)CCN(Cc1ccccc1)C[C@H](O)CN1CN(c2ccc(F)cc2)C2(CCN(Cc3c(Cl)cccc3C(F)(F)F)CC2)C1=O` [compound 459], the IC50 at kappa opioid receptor was 3210 nM; on mu opioid receptor, greater than 10000 nM.

Consider `COC(=O)C(N)CSC[C@H](O)CN1CN(c2ccc(F)cc2)C2(CCN(CC3CCCCCCC3)CC2)C1=O` (stereo partly shown) [compound 460], for which the 50% inhibitory concentration (IC50) amounted to 830 nM at kappa opioid receptor and 900 nM on mu opioid receptor.

For `Cc1cccc2cccc(CN3CCC4(CC3)C(=O)N(C[C@@H](O)CO)CN4c3ccc(F)cc3)c12` [compound 554], the IC50 on kappa opioid receptor was 9470 nM; at mu opioid receptor it was greater than 10000 nM.

In the case of `O=C1N(C[C@@H](O)CNc2ccncc2)CN(c2ccc(F)cc2)C12CCN(Cc1cc(C(F)(F)F)cc(C(F)(F)F)c1)CC2` [compound 608], the IC50 on kappa opioid receptor and at mu opioid receptor was no less than 10000 nM throughout.

`O=C1N(C[C@@H](O)CNCc2cccnc2)CN(c2ccc(F)cc2)C12CCN(Cc1cc(C(F)(F)F)cc(C(F)(F)F)c1)CC2` [compound 609]: the IC50 at kappa opioid receptor and at mu opioid receptor was no less than 10000 nM each time.

For the compound `CCOC(=O)CN(Cc1ccccc1)C[C@H](O)CN1CN(c2ccc(F)cc2)C2(CCN(Cc3cc(C(F)(F)F)cc(C(F)(F)F)c3)CC2)C1=O` [compound 670], the 50% inhibitory concentration (IC50) on kappa opioid receptor and on mu opioid receptor was no less than 10000 nM throughout.

As to `CCCCN(Cc1ccccc1)C[C@H](O)CN1CN(c2ccc(F)cc2)C2(CCN(Cc3cc(C(F)(F)F)cc(C(F)(F)F)c3)CC2)C1=O` [compound 671], the IC50 at kappa opioid receptor and at mu opioid receptor was no less than 10000 nM each time.

With `CC(c1ccccc1)N(Cc1ccccc1)C[C@H](O)CN1CN(c2ccc(F)cc2)C2(CCN(Cc3cc(C(F)(F)F)cc(C(F)(F)F)c3)CC2)C1=O` (stereo partly shown) [compound 672], the half-maximal inhibitory concentration (IC50) on kappa opioid receptor and on mu opioid receptor was no less than 10000 nM each time.

For `COc1ccc(CCN(C)C[C@H](O)CN2CN(c3ccc(F)cc3)C3(CCN(Cc4cc(C(F)(F)F)cc(C(F)(F)F)c4)CC3)C2=O)cc1OC` [compound 673], the IC50 on kappa opioid receptor and at mu opioid receptor was no less than 10000 nM each time.

In the case of `CN(C)CCN(Cc1ccccc1)C[C@H](O)CN1CN(c2ccc(F)cc2)C2(CCN(Cc3cc(C(F)(F)F)cc(C(F)(F)F)c3)CC2)C1=O` [compound 674], the IC50 on kappa opioid receptor and at mu opioid receptor was no less than 10000 nM throughout.

Regarding `O=C1N(C[C@@H](O)CN2CCc3ccccc3C2)CN(c2ccc(F)cc2)C12CCN(Cc1cc(C(F)(F)F)cc(C(F)(F)F)c1)CC2` [compound 682], the IC50 on kappa opioid receptor and at mu opioid receptor was no less than 10000 nM throughout.

Turning to `O=C1N(C[C@@H](O)CN2CCN(c3cccc(C(F)(F)F)c3)CC2)CN(c2ccc(F)cc2)C12CCN(Cc1cc(C(F)(F)F)cc(C(F)(F)F)c1)CC2` [compound 683], the IC50 on kappa opioid receptor and on mu opioid receptor was no less than 10000 nM each time.

In the case of `CCN(CC)C(=O)C1CCCN(C[C@H](O)CN2CN(c3ccc(F)cc3)C3(CCN(Cc4cc(C(F)(F)F)cc(C(F)(F)F)c4)CC3)C2=O)C1` (stereo partly shown) [compound 686], the values for the concentration for half-maximal inhibition (IC50) at kappa opioid receptor and at mu opioid receptor were 2520 nM and no less than 10000 nM, respectively.
